{"source": "patent US20110053971A1", "about": "“NALMEFENE DI-ESTER PRODRUGS” (JANSSEN PHARMACEUTICA NV, priority 2008, published 2011)", "experiment": "In vivo PK studies in dog (oral administration): plasma levels of nalmefene", "conditions": "oral administration of nalmefene itself, Example C.2", "method": "Doses at 10 mg/kg or 20 mg/kg body weight of a compound of formula (I) or of nalmefene itself in a solution of 20% HP-β-CD (hydroxypropyl-β-cyclodextrines) were used and orally administered to dogs.\nBlood samples were taken over a period of 192 hours after oral administration. Blood samples were processed to obtain plasma. Plasma samples were analysed individually for nalmefene by means of a qualified LC-MS/MS-method."}
{"smiles": "C=C1CC[C@@]2(O)[C@H]3Cc4ccc(O)c5c4[C@@]2(CCN3CC2CC2)[C@H]1O5", "note": "[nalmefene, 17-cyclopropylmethyl-4,5α-epoxy-6-methylenemorphinan-3,14-diol]", "values": [{"measurement": "time for which plasma levels of nalmefene can be measured after oral administration (in words)", "result": "a few hours"}]}
